What all share (assay): DTP human tumour cell line panel, 48 h
Assay [1] concerns SK-MEL-28 melanoma.
The subject of assay [2] is SNB-75 CNS.
Assay [3] has as its system SNB-19 CNS.
The test system of assay [4] is HCT-15 colon.
Assay [5] concerns LOX IMVI melanoma.
The test system of assay [6] is KM12 colon.
Assay [7] has as its system COLO 205 colon.
For assay [8], the system named is MDA-MB-231 breast.
Assay [9] deals with HCT-116 colon.
Assay [10] concerns OVCAR-4 ovarian.
The test system of assay [11] is OVCAR-5 ovarian.
For assay [12], the system named is HOP-92 NSCLC.
Assay [13] deals with DU-145 prostate.
The test system of assay [14] is SK-OV-3 ovarian.
Assay [15] has as its system SN12C renal.
Assay [16] deals with 786-0 renal.
Assay [17] deals with HS 578T breast.
Assay [18] deals with MDA-N.
The test system of assay [19] is RXF 393 renal.
In assay [20] the test system is BT-549 breast.

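Exposure lasted 48 hours, with cells grown in 96-well plates and compounds tested at five concentrations. TGI: total growth inhibition.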

In general, TGI refers to the concentration giving total growth inhibition. The low end stands for more potent growth arrest, the high end for less potent growth arrest. `O=C1/C(=C/c2ccc(Cl)cc2)NC(=S)N1CN1CCOCC1`: the TGI in assay [1], in assay [2], in assay [3], in [4], in assay [5] and in assay [6] was over 100 µM each time. Besides, the concentration for total growth inhibition (TGI) in [7], in assay [8], in assay [9], in [10], in assay [11] and in [12] was over 100 µM in each case. In addition, the concentration for total growth inhibition (TGI) in [13], in [14], in assay [15], in assay [16], in assay [17] and in [18] was over 100 µM in each case.
On to `CC1(C)OC(=O)C(C)(C)OC1=O`, for which the TGI in assay [1], in assay [19], in assay [2], in [3], in [4] and in assay [5] was over 100 µM throughout. Also, the total growth inhibition concentration (TGI) in [6], in [7], in assay [8], in assay [9], in assay [10] and in [11] was over 100 µM throughout. Also, the TGI in assay [12], in assay [13], in assay [14], in assay [15], in assay [16] and in [17] was over 100 µM in each case. In assay [18], this compound showed a TGI of over 100 µM.
In the case of `COC(C/C(=C/CO[Si](C(C)C)(C(C)C)C(C)C)C(=O)Nc1ccccc1I)OC`, the TGI was over 100 µM in [1]; 27.1 µM in assay [19]; over 100 µM in assay [2]; 42.5 µM in assay [3]; 71.1 µM in [4]; 45.5 µM in assay [5]. Further, the total growth inhibition concentration (TGI) was over 100 µM in [6]; over 100 µM in assay [7]; 46 µM in assay [8]; 39.8 µM in assay [9]; over 100 µM in [10]; 70 µM in assay [11]. Also, the concentration for total growth inhibition (TGI) was 61.7 µM in assay [12]; over 100 µM in assay [13]; over 100 µM in assay [14]; over 100 µM in assay [15]; over 100 µM in assay [16]; over 100 µM in [17]. In addition, the TGI in assay [18] was over 100 µM.
As for `CO[C@@](c1ccccc1)(c1nc(C#N)c(N)o1)C(F)(F)F`, the concentration for total growth inhibition (TGI) in assay [1], in [19], in [2], in assay [3], in assay [4] and in assay [5] was over 100 µM each time. For the same compound, the TGI in assay [6], in assay [7], in [8], in assay [9], in [10] and in assay [12] was over 100 µM in each case. Further, the TGI in assay [13], in [14], in assay [15], in assay [16] and in [18] was over 100 µM in each case.
For `CC1(C)C=C(/C=N/Nc2ccc(Br)cc2)C(C#N)=C(O)C1(C#N)C#N`, the concentration for total growth inhibition (TGI) in assay [1] was over 100 µM; in assay [19], 91.3 µM; in assay [2], over 100 µM; in assay [3], over 100 µM; in assay [5] it was over 100 µM; in [6], over 100 µM. The total growth inhibition concentration (TGI) in assay [7] is 36.8 µM; in assay [8], over 100 µM; in [9], over 100 µM; in assay [10], over 100 µM; in assay [11], over 100 µM; in [12], 65.7 µM. For the same compound, the total growth inhibition concentration (TGI) in assay [13], in assay [14], in assay [15], in assay [16], in [17] and in assay [18] was over 100 µM each time.
In the case of `O=C1Nc2ccccc2[C@]12C[C@H]2c1ccccn1`, the concentration for total growth inhibition (TGI) in assay [1], in assay [19], in [3], in assay [4], in [5] and in assay [6] was over 100 µM each time. Further, the TGI in assay [7], in [20], in assay [8], in assay [9], in assay [10] and in assay [11] was over 100 µM each time. For the same compound, the TGI in assay [12], in assay [13], in assay [14], in assay [15], in assay [16] and in assay [18] was over 100 µM in each case.
`Cc1[nH]n(-c2nc3c(c(=O)[nH]2)CCC3)c(=O)c1CCO`: the TGI was over 100 µM in [1]; over 100 µM in [19]; 46.5 µM in assay [2]; over 100 µM in [3]; over 100 µM in assay [4]; over 100 µM in assay [5]. Besides, the total growth inhibition concentration (TGI) in assay [6], in [7], in assay [8], in [9], in assay [10] and in assay [11] was over 100 µM throughout. Moreover, the concentration for total growth inhibition (TGI) in assay [13], in assay [14], in assay [15], in assay [16], in assay [17] and in assay [18] was over 100 µM in each case.

The values above are taken from PubChem BioAssay (NCI).
